Measured values: US11118227B2, “Methods of identifying agents having neuroprotective or anti-oxidant activity for regulating mitochondrial function” (THE ROYAL VETERINARY COLLEGE, priority 2015, dated 2021)
Entries after “also recorded” stand apart in the source; their conditions may differ.

Key:
[1] = test system: TSPO; experiment: Immunofluorescence and immunoblot of TSPO in SHY-5Y cells treated with PD toxins; type: cell-based
Source text: a. Representative immunofluorescence of TSPO in SHY-5Y Cells. Panels b and c: Immunoblot analysis of TSPO expression pattern and ATPB5 in SHY-5Y Cells treated with MPP^+ and 6-OHD.

[2] = test system: PARK2; experiment: Live imaging of YFP-PARK2 translocation in HeLa cells co-transfected with mt-RFP and YFP-PARK2; type: cell-based; conditions: for time of FCCP treatment to almost complete co-localisation of PARK2 in mitochondria: YFP-PARK2; for time of FCCP treatment at which PARK2 translocation was initiated: YFP-PARK2, pre- or co-treated
[3] = test system: MEF cells; experiment: Confocal imaging of colocalisation of mitochondria and LC-3 in MEF cells; type: cell-based, mouse; conditions: 24 hr; for mitochondrial LC3 colocalisation (mitophagy): 1 μM sulforaphane or 10 μM PMI, FIG. 2D
Procedure: (§1) (D) Representative images of LC3 localization in MEF cells treated with DMSO vehicle control, or 1 μM sulforaphane and/or 10 μM PMI for 24 hr. Scale bar represents 10 μm. A magnification of the merge images is shown in areas demarcated by the white box.
To investigate the effects of sulforaphane in mitophagy, we examined the colocalisation of mitochondria and LC-3 in MEF cells using high-resolution confocal imaging (FIG. 2D).

[4] = test system: MEF cells; experiment: Western blot of mitochondrial protein levels (MTCO-1, β-subunit) in MEF cells; type: cell-based, mouse; conditions: 24 h; for mitochondrial network / key mitochondrial protein levels by western blot: vs untreated cells; for PMI (Nrf2)-induced reduction of mitochondrial protein levels, on co-administration of sulforaphane: 10 μM PMI & 1 μM sulforaphane
Procedure: [β-actin is shown as a loading control.
B-actin is shown as a loading control.
(§2) B-actin is shown as a loading control. […].
(§3) (A) Western blot to compare β-subunit, MTCO-1 and TSPO levels in MEFs treated with either DMSO vehicle control, or sulforaphane (1 μM), or PMI (10 μM) either with or without co-administration of UO126 (10 μM) for 24 h. B-actin is shown as a loading control.

[5] = test system: TSPO mRNA; experiment: RT-PCR of TSPO mRNA levels in MEF cells; type: cell-based, mouse; conditions: 24 h, PMI (10 μM) or sulforaphane (1 μM), vs control
Procedure: (D) RT-PCR analysis for estimation of TSPO mRNA levels in MEFs following treatment with DMSO, PMI (10 μM) and/or sulforaphane (1 μM). Values are presented as arbitrary units normalized to 18s RNA levels for each sample, n≥3.
(§4) TSPO has been recently described as a modulator of mitophagy (Gatliff et al., 2014). We were therefore interested to examine if PMI and sulforaphane alter its accumulation on Mitochondria as well as its transcription levels FIG. 6E.

[6] = test system: PARK2; experiment: Western blot of PARK2 in mitochondrial fractions of MEF cells (basal conditions); type: cell-based, mouse; conditions: 24 h; for levels of PARK2 in mitochondrial fractions: basal, vs vehicle control, FIG. 4A-B
Source text: We therefore examined the ability of PARK2 to translocate to mitochondria either under basal conditions or after Carbonyl cyanide-4-(trifluoromethoxy)phenylhydrazone (FCCP an ionophore) treatment.

[7] = test system: TSPO; experiment: TSPO expression in PARK2 null cells (HeLa); type: cell-based
[8] = test system: HeLa cells; experiment: Western blot of mitochondrial proteins (mitophagy) in HeLa cells; type: cell-based; conditions: HeLa cells (PARK2 null), after 7 h and 24 h
Source text: as §2

[9] = test system: MEF cells; experiment: Western blot of mitochondrial protein ubiquitination in mitochondrial fractions of MEF cells; type: cell-based, mouse; conditions: 24 h, FIG. 3B
Source text: (B) Western blot of mitochondrial fractions, highlighting mitochondrial ubiquitination in control or sulforaphane and/or PMI-treated MEF cells. B-subunit is shown as a loading control; n=2.
(§5) The levels and localisation of p62 in MEF cells were then examined by immunoblotting (FIG. 3A).

[10] = target: T1, human Keap1 Kelch protein (Homo sapiens, UniProt Q14145); experiment: Biochemical experiments on the Keap1-Nrf2 protein-protein interaction with human Keap1 Kelch protein
T1 construct: human Keap1 Kelch protein
T1 sequence (Q14145 321-609 limits assumed): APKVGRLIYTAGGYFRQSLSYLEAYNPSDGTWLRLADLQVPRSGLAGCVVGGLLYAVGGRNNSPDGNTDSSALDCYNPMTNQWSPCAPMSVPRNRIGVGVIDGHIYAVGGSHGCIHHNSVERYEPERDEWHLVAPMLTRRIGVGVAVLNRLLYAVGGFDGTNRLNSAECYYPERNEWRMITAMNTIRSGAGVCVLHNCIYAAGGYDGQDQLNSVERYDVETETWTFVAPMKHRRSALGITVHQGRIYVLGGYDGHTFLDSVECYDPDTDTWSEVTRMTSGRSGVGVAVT
Procedure: To confirm the mode of action of PMI, a series of biochemical experiments were conducted with human Keap1 Kelch protein.

[11] = test system: PARK2; experiment: Immunocytochemistry of FCCP-induced PARK2 translocation in MEF cells; type: cell-based, mouse; conditions: 24 hr treatment then FCCP (20 μM) 4 hr, vs vehicle control, FIG. 4E
Procedure: as §1, with “(E)” for “(D)”, “PARK2” for “LC3”, “control” for “control,”, “24 hr, before and after treatment with FCCP (20 μM) for 4” for “24”

[12] = test system: P62; conditions: East et al 2014, cited from earlier work
[13] = test system: TSPO; experiment: Immunoblotting of TSPO levels in MEF cells; type: cell-based, mouse; conditions: 24 h, 1 μM sulforaphane or 10 μM PMI, vs control
Procedure: as §3
(B) Graph show MTCO-1:β-actin (B), β-subunit:β-actin (C), TSPO:β-actin ratio band density analysis, n=3.
as §4

[14] = test system: MEF cells; conditions: 24 h, 1 μM sulforaphane or 10 μM PMI, previously reported work (East et al., 2014), FIG. 1C; cited from earlier work
[15] = test system: p62; conditions: MEF cells, 24 h, 1 μM sulforaphane
Procedure: (A) Representative images of P62 localization in MEF cells treated with DMSO vehicle control, or 1 μM sulforaphane and/or 10 μM PMI for 24 hr. Scale bar represents 10 μm. A magnification of the merge images is shown in areas demarcated by the white box. […].
as §5

Structure (SMILES)	TSPO expression [1]	time of FCCP treatment to almost complete co-localisation of PARK2 in mitochondria [2]	time of FCCP treatment at which PARK2 translocation was initiated [2] [min]	mitochondrial LC3 colocalisation (mitophagy) [3]	mitochondrial network / key mitochondrial protein levels by western blot [4]	levels of TSPO mRNA (RT-PCR) [5]	levels of PARK2 in mitochondrial fractions [6]	expression of TSPO [7]	induction of mitophagy (mitochondrial protein levels) [8]	FCCP-induced PARK2 translocation [11]	levels of TSPO by immunoblotting [13]	also measured
NCCc1cc(O)c(O)cc1O [6-HOD]	upregulate TSPO											
C[n+]1ccc(-c2ccccc2)cc1 [MPP^+]	upregulate TSPO											
O=[N+]([O-])c1cccc(-c2cn(-c3cccc(I)c3)nn2)c1 [PMI]		approximately 60 mins	30	significantly increased compared to untreated cells	reduced mitochondrial network	reduced compared to control	no statistically significant differences	but not in the cells in which PARK2 is not expressioned such as HeLa cells	induction of mitophagy was observed	no statistically significant differences	reduction in the levels of TSPO; also recorded: decreases TSPO levels in MEFs	sulforaphane-reduced PARK2 activity, on addition of PMI ([6]; sulforaphane plus PMI): did not alter the reduced activity of PARK2; ubiquitination in mitochondrial fractions ([9]; vs vehicle control): increased ubiquitination; degradation of the Keap1 Kelch protein [10]: without causing a degradation of the Keap1 Kelch protein; disruption of the protein-protein interaction between Keap1 and Nrf2 [10]: able to disrupt the protein-protein interaction between Keap1 and Nrf2 in a dose-dependent manner; P62 expression [12]: upregulates P62 via stabilization of Nrf2; mitophagy [12]: promotes mitophagy; toxic effects on cells ([12]; at the concentrations used in the assays): does not mediate any apparent toxic effects on cells
C[S+]([O-])CCCCN=C=S (stereo not shown) [sulforaphane]		approximately 60 mins	30	no induction of mitophagy was observed	no significant differences	statistically significant increase	reduced compared to the vehicle control	does not affect the expression of TSPO	induction of mitophagy was observed	no statistically significant differences	no significant differences were observed	mitochondrial LC3 colocalisation attributed to PMI, on addition of sulforaphane ([3]; 10 μM PMI plus 1 μM sulforaphane): abolished; mitochondrial proteins (MTCO-1) by Western blot [14]: an increase in mitochondrial proteins; PMI (Nrf2)-induced reduction of mitochondrial protein levels, on co-administration of sulforaphane [4]: significant normalization of the mitochondrial protein levels; PMI (Nrf2)-induced reduction of mitochondrial protein levels, on co-administration of sulforaphane ([4]; listed as Sulforaphane): inhibits the Nrf2-induced reduction of mitochondrial protein levels; levels of p62 in the cytosol [15]: increased levels of p62 in the cytosol compared to control; translocation of p62 to mitochondria [15]: impaired and significantly reduced compared to basal conditions; PMI-induced mitochondrial ubiquitination, on co-administration of sulforaphane ([9]; PMI plus sulforaphane): abolished the effect attributed to PMI; levels of TSPO by immunoblotting ([13]; listed as Sulforaphane): does not affect the expression of TSPO
